Experimental findings from patent publication US7807721B2, “Compositions for inhibiting the scent tracking ability of mosquitoes in environmentally defined three dimensional spaces” (Biosensory Inc., priority 1999, dated 2010) are described below.

The subject of one test is Culex nigripalpus. Kind of test: Field test, mosquito landing counts on human subject in open area surrounded by linalool dispensers. It is filed as in vivo. As for the experimental part: In a further test of the inhibiting ability of the compounds of this invention, the following field test was conducted using linalool as the inhibiting compound. The study was conducted on a site adjacent to a wooded wetland breeding area in Sarasota, Fla. A trap baited with 200 ml/min CO2, equivalent to the respiration of a 91 kg (200 lb) man, ran continuously each night as an experimental control. The trap collections were first used to count the mosquito population and were then examine to identify the species present. The mosquito population was about 91% Culex nigripalpus, the St. Louis encephalitis vector in Florida.
The experimental design was a 2×2 Latin Square. Tests were conducted in two open areas 24 meters (80 feet) apart labeled Locations 1 and 2. Each area was 2.4 meters×2.4 meters (8 ft×8 ft), i.e., 5.76 m^2 (64 ft^2). Wooden poles 1.38 meters (4.5 feet) high and having inhibiting compound dispensers thereon were driven into the ground at the corners of the square area. On alternate nights, one area was unprotected by inhibiting compound while the other area had inhibiting compound dispensed from the dispenser. In operation, the dispenser emitted linalool inhibitor having 95% active ingredient at a rate of 20 mg/hr to 40 mg/hr.
Landing counts were taken from the arms, legs and torso of a test subject known to be moderately attractive to mosquitoes who was seated in the center of the square area. At 15-minute intervals over a period of 2 to 3 hours during peak mosquito activity, the subject changed position, alternating between Locations 1 and 2. […] Mosquitoes were killed to prevent double counting.
On some cue, they emerge en masse from the wooded wetland and fan out in a radial direction foraging for blood hosts. The period of peak activity is evidenced by a sharp increase in landing counts followed by a sharp decrease as the wave of outbound mosquitoes passes the test location. This behavior introduces two variables that must be taken into account. The first affects the experimental design and the second affects the interpretation of the results. […]

Test [1] concerns adult female Aedes aegypti mosquitoes. Kind of test: Competitive tests in triple cage, dual-port olfactometer: inhibitor + Clara Sludge (CS) human attractant port vs CS-only port. The conditions noted are these: for % Mosquitoes Entering Treatment Port (Inhibitor Port): 3 min test; for % Mosquitoes Entering Control Port (Human Scent Port): control port 500 μL CS only; for % Mosquitoes Entering Control Port (Human Scent Port) / % Mosquitoes Remaining in Cage: 3 min. It is filed as in vivo. From the text:
A triple cage, dual-port olfactometer, illustrated and described in detail by Posey et al. J. Med. Entomol. 35(3), 330-334 (1998), was used to study the responses of 6 to 8 day old, laboratory-reared adult female Aedes aegypti mosquitoes. This system allows mosquitoes to choose between two different stimuli. The olfactometer is constructed of clear acrylic, comprises three test chambers in a tiered configuration, has paired removable sleeves, and mosquito traps on each chamber, and is equipped with a filtered external air supply system that allows precise temperature (+/−0.5° C.) and relative humidity (+/−2%) control. Only one chamber at a time was used for the tests. Outside air was conditioned prior to entry through the choice ports, the mosquito trap, and the olfactometer by passing through a series of charcoal filters and then heated and humidified, if necessary. One hour before initiation of tests, about 75 female Ae. aegypti mosquitoes were aspirated into the olfactometer chamber and allowed to acclimatize for that one hour before testing. Test compounds were placed into test ports upwind of the traps and olfactometer chamber. A completely randomized design was used for cage position. Competitive tests were conducted. In these competitive tests, the inhibiting compound was placed into one of the ports (treatment port); the second port (check port) had the same apparatus but no chemical inhibiting compound. In these tests, inhibiting compounds were presented in glass Pyrex petri dishes (60×15 mm) that had been cleaned and sterilized in a vacuum oven and then handled only with gloves to minimize any chance of contamination and placed into one port (Treatment Port) along with another petri dish containing 500 μL of Clara Sludge (CS), a synthetic human attractant. The other port (Check Port) contained an untreated petri with no inhibiting compound and a second petri dish containing 500 μL CS. Various concentrations (25, 100, 250, 500 and 1000 μL) of the compounds were used in these tests. Each test was conducted for a period of 3 minutes; the number of mosquitoes trapped in the baited ports, and those remaining in the cage, were counted. The data are then presented as a percentage of total mosquitoes in the cage that were attracted to each port and the percentage of mosquitoes remaining in the cage (i.e., not attracted to either port).

As to `C=CC(C)(O)CCC=C(C)C` (stereo not shown) [Linalool, linalool], in the test on Culex nigripalpus (average over the three trials, linalool dispensed at 20 mg/hr to 40 mg/hr, human subject, 64 ft^2 area), the “reduction of mosquito landing counts, average” value worked out at 53%. This compound had a reduction of landings in the test with Culex nigripalpus (morning trial (7:00 AM to 9:00 AM) when mosquito activity was light) of 73%. For the same compound, the “landings on human subject” value with Culex nigripalpus (subject surrounded by linalool dispensed from the dispensers (unprotected: 286 landings)) was 135 landings. Moreover, the “% Mosquitoes Entering Treatment Port (Inhibitor Port)” value in test [1] (25 micro liter test compound + 500 μL CS in treatment port) is listed as 21.98%; in test [1] (100 micro liter test compound + 500 μL CS in treatment port) it was 31.3%; in test [1] (250 micro liter test compound + 500 μL CS in treatment port), 16.57%; in test [1] (500 micro liter test compound + 500 μL CS in treatment port), 16.13%; in test [1] (1000 micro liter test compound + 500 μL CS in treatment port), 27.24%. The “% Mosquitoes Entering Control Port (Human Scent Port)” value stood at 56.89% in test [1] (25 micro liter test compound in treatment port); 45.61% in test [1] (100 micro liter test compound in treatment port); 47.3% in test [1] (250 micro liter test compound in treatment port); 44.56% in test [1] (500 micro liter test compound in treatment port); 44.14% in test [1] (1000 micro liter test compound in treatment port). Moreover, the “% Mosquitoes Remaining in Cage” value was found to be 21.14% in test [1] (25 micro liter test compound); 23.08% in test [1] (100 micro liter test compound); 36.13% in test [1] (250 micro liter test compound); 39.31% in test [1] (500 micro liter test compound); 31.3% in test [1] (1000 micro liter test compound). Moreover, the “inhibition of the ability of mosquitoes to locate the human scent (CS)” value in test [1] (all tested concentration levels (25-1000 μL)) is recorded as “greatly inhibit”.
